Measurements: patent publication US8278452B2, “Heterocyclic compounds and compositions as c-kit and PDGFR kinase inhibitors” (IRM LLC, priority 2008, dated 2012)

Test system: Mo7e cells which endogenously express c-kit
Test: Mo7e assay: inhibition of SCF dependent proliferation (MTT)
Type: cell-based
Settings: Table 1; SCF stimulated Mo7e cells, 48 hours, MTT
Experimental: The compounds described herein are tested for inhibition of SCF dependent proliferation using Mo7e cells which endogenously express c-kit in a 96 well format. Two-fold serially diluted test compounds (Cmax=10 μM) are evaluated for their antiproliferative activity of Mo7e cells stimulated with human recombinant SCF. After 48 hours of incubation at 37° C., cell viability is measured by using a MTT colorimetric assay from Promega. IC50 values for compounds of the invention are quoted in table 1, supra.

| SMILES | IC50 [nM] |
| --- | --- |
| Cc1cc2c(cn1)cc(-c1cc(Nc3noc(C4CCOCC4)n3)ccc1C)c(=O)n2C [Compound A33, 1,7-dimethyl-3-(2-methyl-5-{[5-(oxan-4-yl)-1,2,4-oxadiazol-3-yl]amino}phenyl)-1,2-dihydro-1,6-naphthyridin-2-one] | 444 |
| Cc1cc2c(cn1)cc(-c1cc(Nc3noc(C4(C)CC4)n3)ccc1C)c(=O)n2C [Compound A34, 1,7-dimethyl-3-(2-methyl-5-(5-(1-methylcyclopropyl)-1,2,4-oxadiazol-3-ylamino)phenyl)-1,6-naphthyridin-2(1H)-one] | 83 |
| Cc1cc2c(cn1)cc(-c1cc(Nc3noc(C(C)(C)CO)n3)ccc1C)c(=O)n2C [Compound A35, 3-(5-(5-(1-hydroxy-2-methylpropan-2-yl)-1,2,4-oxadiazol-3-ylamino)-2-methylphenyl)-1,7-dimethyl-1,6-naphthyridin-2(1H)-one] | 181 |
| Cc1cc2c(cn1)cc(-c1cc(Nc3noc(-c4ccc(O)cc4)n3)ccc1C)c(=O)n2C [Compound A36, 3-(5-{[5-(4-hydroxyphenyl)-1,2,4-oxadiazol-3-yl]amino}-2-methylphenyl)-1,7-dimethyl-1,2-dihydro-1,6-naphthyridin-2-one] | 375 |
| Cc1cc2c(cn1)cc(-c1cc(Nc3noc(-c4ccc(C#N)cc4)n3)ccc1C)c(=O)n2C [Compound A37, 4-(3-{[3-(1,7-dimethyl-2-oxo-1,2-dihydro-1,6-naphthyridin-3-yl)-4-methylphenyl]amino}-1,2,4-oxadiazol-5-yl)benzonitrile] | 57 |
| Cc1cc2c(cn1)cc(-c1cc(Nc3noc(-c4ccccc4C#N)n3)ccc1C)c(=O)n2C [Compound A38, 2-(3-{[3-(1,7-dimethyl-2-oxo-1,2-dihydro-1,6-naphthyridin-3-yl)-4-methylphenyl]amino}-1,2,4-oxadiazol-5-yl)benzonitrile] | 325 |
| Cc1cc2c(cn1)cc(-c1cc(Nc3noc(-c4cccc(O)c4)n3)ccc1C)c(=O)n2C [Compound A39, 3-(5-{[5-(3-hydroxyphenyl)-1,2,4-oxadiazol-3-yl]amino}-2-methylphenyl)-1,7-dimethyl-1,2-dihydro-1,6-naphthyridin-2-one] | 480 |
| Cc1cc2c(cn1)cc(-c1cc(Nc3noc(-c4cccc(C#N)c4)n3)ccc1C)c(=O)n2C [Compound A40, 3-(3-{[3-(1,7-dimethyl-2-oxo-1,2-dihydro-1,6-naphthyridin-3-yl)-4-methylphenyl]amino}-1,2,4-oxadiazol-5-yl)benzonitrile] | 299 |
| Cc1cc2c(cn1)cc(-c1cc(Nc3noc(-c4ccc(OC(F)(F)F)cc4)n3)ccc1C)c(=O)n2C [Compound A41, 1,7-dimethyl-3-[2-methyl-5-({5-[4-(trifluoromethoxy)phenyl]-1,2,4-oxadiazol-3-yl}amino)phenyl]-1,2-dihydro-1,6-naphthyridin-2-one] | 53 |
| Cc1cc2c(cn1)cc(-c1cc(Nc3noc(-c4cccc(O)n4)n3)ccc1C)c(=O)n2C [Compound A42, 3-(5-{[5-(6-hydroxypyridin-2-yl)-1,2,4-oxadiazol-3-yl]amino}-2-methylphenyl)-1,7-dimethyl-1,2-dihydro-1,6-naphthyridin-2-one] | 265 |
| Cc1cc2c(cn1)cc(-c1cc(Nc3noc(-c4ccc(CO)cc4)n3)ccc1C)c(=O)n2C [Compound A43, 3-[5-({5-[4-(hydroxymethyl)phenyl]-1,2,4-oxadiazol-3-yl}amino)-2-methylphenyl]-1,7-dimethyl-1,2-dihydro-1,6-naphthyridin-2-one] | 386 |
| Cc1cc2c(cn1)cc(-c1cc(Nc3noc(-c4csc(-c5cccnc5)n4)n3)ccc1C)c(=O)n2C [Compound A44, 1,7-dimethyl-3-[2-methyl-5-({5-[2-(pyridin-3-yl)-1,3-thiazol-4-yl]-1,2,4-oxadiazol-3-yl}amino)phenyl]-1,2-dihydro-1,6-naphthyridin-2-one] | 456 |
| Cc1cc2c(cn1)cc(-c1cc(Nc3noc(-c4nc(C)oc4C)n3)ccc1C)c(=O)n2C [Compound A45, 3-(5-{[5-(2,5-dimethyl-1,3-oxazol-4-yl)-1,2,4-oxadiazol-3-yl]amino}-2-methylphenyl)-1,7-dimethyl-1,2-dihydro-1,6-naphthyridin-2-one] | 263 |
| Cc1cc2c(cn1)cc(-c1cc(Nc3noc(-c4cc5cc(Cl)ccc5[nH]4)n3)ccc1C)c(=O)n2C [Compound A46, 3-(5-{[5-(5-chloro-1H-indol-2-yl)-1,2,4-oxadiazol-3-yl]amino}-2-methylphenyl)-1,7-dimethyl-1,2-dihydro-1,6-naphthyridin-2-one] | 338 |
| Cc1cc2c(cn1)cc(-c1cc(Nc3noc(-c4cccc(C)n4)n3)ccc1C)c(=O)n2C [Compound A47, 1,7-dimethyl-3-(2-methyl-5-{[5-(6-methylpyridin-2-yl)-1,2,4-oxadiazol-3-yl]amino}phenyl)-1,2-dihydro-1,6-naphthyridin-2-one] | 311 |
| Cc1cc2c(cn1)cc(-c1cc(Nc3noc(-c4ccc(C)nc4Cl)n3)ccc1C)c(=O)n2C [Compound A48, 3-(5-{[5-(2-chloro-6-methylpyridin-3-yl)-1,2,4-oxadiazol-3-yl]amino}-2-methylphenyl)-1,7-dimethyl-1,2-dihydro-1,6-naphthyridin-2-one] | 361 |

| SMILES | IC50 [nM] |
| --- | --- |
| Cc1cc2c(cn1)cc(-c1cc(Nc3noc(-c4cccc(Cl)n4)n3)ccc1C)c(=O)n2C [Compound A49, 3-(5-{[5-(6-chloropyridin-2-yl)-1,2,4-oxadiazol-3-yl]amino}-2-methylphenyl)-1,7-dimethyl-1,2-dihydro-1,6-naphthyridin-2-one] | 333 |
| Cc1cc2c(cn1)cc(-c1cc(Nc3noc(-c4ccncc4)n3)ccc1C)c(=O)n2C [Compound A50, 1,7-dimethyl-3-(2-methyl-5-{[5-(pyridin-4-yl)-1,2,4-oxadiazol-3-yl]amino}phenyl)-1,2-dihydro-1,6-naphthyridin-2-one] | 271 |
| Cc1ccc(-c2nc(Nc3ccc(C)c(-c4cc5cnc(C)cc5n(C)c4=O)c3)no2)cn1 [Compound A51, 1,7-dimethyl-3-(2-methyl-5-(5-(6-methylpyridin-3-yl)-1,2,4-oxadiazol-3-ylamino)phenyl)-1,6-naphthyridin-2(1H)-one] | 119 |
| Cc1cc2c(cn1)cc(-c1cc(Nc3noc(-c4ccccn4)n3)ccc1C)c(=O)n2C [Compound A52, 1,7-dimethyl-3-(2-methyl-5-(5-(pyridin-2-yl)-1,2,4-oxadiazol-3-ylamino)phenyl)-1,6-naphthyridin-2(1H)-one] | 68 |
| Cc1cncc(-c2nc(Nc3ccc(C)c(-c4cc5cnc(C)cc5n(C)c4=O)c3)no2)c1 [Compound A53, 1,7-dimethyl-3-(2-methyl-5-{[5-(5-methylpyridin-3-yl)-1,2,4-oxadiazol-3-yl]amino}phenyl)-1,2-dihydro-1,6-naphthyridin-2-one] | 427 |
| Cc1cc2c(cn1)cc(-c1cc(Nc3noc(C(C)(F)F)n3)ccc1C)c(=O)n2C [Compound A54, 3-(5-(5-(1,1-difluoroethyl)-1,2,4-oxadiazol-3-ylamino)-2-methylphenyl)-1,7-dimethyl-1,6-naphthyridin-2(1H)-one] | 148 |
| Cc1cc2c(cn1)cc(-c1cc(Nc3noc(CC(C)O)n3)ccc1C)c(=O)n2C (stereo not shown) [Compound A55, 3-(5-{[5-(2-hydroxypropyl)-1,2,4-oxadiazol-3-yl]amino}-2-methylphenyl)-1,7-dimethyl-1,2-dihydro-1,6-naphthyridin-2-one] | 294 |
| Cc1cc2c(cn1)cc(-c1cc(Nc3noc(CC(C)(C)O)n3)ccc1C)c(=O)n2C [Compound A56, 3-(5-(5-(2-hydroxy-2-methylpropyl)-1,2,4-oxadiazol-3-ylamino)-2-methylphenyl)-1,7-dimethyl-1,6-naphthyridin-2(1H)-one] | 230 |
| Cc1cc2c(cn1)cc(-c1cc(Nc3noc(C4(O)CC4)n3)ccc1C)c(=O)n2C [Compound A57, 3-(5-(5-(1-hydroxycyclopropyl)-1,2,4-oxadiazol-3-ylamino)-2-methylphenyl)-1,7-dimethyl-1,6-naphthyridin-2(1H)-one] | 185 |
| Cc1cc2c(cn1)cc(-c1cc(Nc3noc(C4(C(F)(F)F)CC4)n3)ccc1C)c(=O)n2C [Compound A58, 1,7-dimethyl-3-(2-methyl-5-(5-(1-(trifluoromethyl)cyclopropyl)-1,2,4-oxadiazol-3-ylamino)phenyl)-1,6-naphthyridin-2(1H)-one] | 399 |
| Cc1cc2c(cn1)cc(-c1cc(Nc3noc(C4CCCOC4)n3)ccc1C)c(=O)n2C (stereo not shown) [Compound A59, 1,7-dimethyl-3-(2-methyl-5-{[5-(oxan-3-yl)-1,2,4-oxadiazol-3-yl]amino}phenyl)-1,2-dihydro-1,6-naphthyridin-2-one] | 233 |
| Cc1cc2c(cn1)cc(-c1cc(Nc3noc(-c4c(F)cccc4F)n3)ccc1C)c(=O)n2C [Compound A60, 3-(5-{[5-(2,6-difluorophenyl)-1,2,4-oxadiazol-3-yl]amino}-2-methylphenyl)-1,7-dimethyl-1,2-dihydro-1,6-naphthyridin-2-one] | 82 |
| Cc1cc2c(cn1)cc(-c1cc(Nc3noc(-c4ccc(F)cc4F)n3)ccc1C)c(=O)n2C [Compound A61, 3-(5-{[5-(2,4-difluorophenyl)-1,2,4-oxadiazol-3-yl]amino}-2-methylphenyl)-1,7-dimethyl-1,2-dihydro-1,6-naphthyridin-2-one] | 97 |
| Cc1cc2c(cn1)cc(-c1cc(Nc3noc(-c4ccc(F)c(F)c4)n3)ccc1C)c(=O)n2C [Compound A62, 3-(5-{[5-(3,4-difluorophenyl)-1,2,4-oxadiazol-3-yl]amino}-2-methylphenyl)-1,7-dimethyl-1,2-dihydro-1,6-naphthyridin-2-one] | 126 |
| Cc1cc2c(cn1)cc(-c1cc(Nc3noc(-c4ccc(C#N)cc4F)n3)ccc1C)c(=O)n2C [Compound A63, 4-(3-{[3-(1,7-dimethyl-2-oxo-1,2-dihydro-1,6-naphthyridin-3-yl)-4-methylphenyl]amino}-1,2,4-oxadiazol-5-yl)-3-fluorobenzonitrile] | 123 |
